# Measurements reported in publication PMC3830731 (ACS chemical biology, 2013).
# Assays:
# MtmOIV [1] = molecular target: MtmOIV (Streptomyces argillaceus, UniProt Q194P4, R173A, form not given); test: NADPH oxidation, fluorescence; format: biochemical; settings: 2 mM premithramycin B, 0.1 mM FAD, O2; 100 mM Tris-HCl pH 8.25, 30 °C
# MtmOIV [2] = molecular target: T1, MtmOIV (Streptomyces argillaceus, UniProt Q194P4); test: NADPH oxidation, fluorescence; format: biochemical; settings: 2 mM premithramycin B, 0.1 mM FAD, O2; 100 mM Tris-HCl pH 8.25, 30 °C
# MtmOIV [3] = molecular target: T1, MtmOIV; test: X-ray crystal structure, […] Å; format: binding; settings: non-covalently bound
Km (MtmOIV [1]) [µM],Km (MtmOIV [2]) [µM],SMILES,"X-ray crystal structure, 2.0 Å (MtmOIV [3])"
528 ± 63,372 ± 68,NC(=O)C1=CN([C@@H]2O[C@H](COP(=O)(O)OP(=O)(O)OC[C@H]3O[C@@H](n4cnc5c(N)ncnc54)[C@H](OP(=O)(O)O)[C@@H]3O)[C@@H](O)[C@H]2O)C=CC1 [NADPH],–
–,–,Cc1cc2nc3c(=O)[nH]c(=O)nc-3n(C[C@H](O)[C@H](O)[C@H](O)COP(=O)(O)OP(=O)(O)OC[C@H]3O[C@@H](n4cnc5c(N)ncnc54)[C@H](O)[C@@H]3O)c2cc1C [FAD],a single non-covalently bound FAD cofactor
